Results on 2 compounds are retold here after ChEMBL document CHEMBL6109164, “Discovery of Novel DDR1 Inhibitors through a Hybrid Virtual Screening Pipeline, Biological Evaluation and Molecular Dynamics Simulations” (ACS Med Chem Lett, 2025).

Calls of active or inactive are those of the source. The calls are words filed in the database; no cut-off is given here.

One experiment deals with Z-138. Nature of the experiment: Cytotoxicity against human Z138 cells assessed as reduction in cell viability. The format is functional, cell-based.
In experiment [1] the target is Epithelial discoidin domain-containing receptor 1 (Homo sapiens) (UniProt Q08345). Kind of experiment: Binding affinity to DDR1 (unknown origin) at VAL624 residue assessed as occupancy relative to control.
Sequence of Epithelial discoidin domain-containing receptor 1 (Homo sapiens) (Q08345 whole entry, the tested form may be a part): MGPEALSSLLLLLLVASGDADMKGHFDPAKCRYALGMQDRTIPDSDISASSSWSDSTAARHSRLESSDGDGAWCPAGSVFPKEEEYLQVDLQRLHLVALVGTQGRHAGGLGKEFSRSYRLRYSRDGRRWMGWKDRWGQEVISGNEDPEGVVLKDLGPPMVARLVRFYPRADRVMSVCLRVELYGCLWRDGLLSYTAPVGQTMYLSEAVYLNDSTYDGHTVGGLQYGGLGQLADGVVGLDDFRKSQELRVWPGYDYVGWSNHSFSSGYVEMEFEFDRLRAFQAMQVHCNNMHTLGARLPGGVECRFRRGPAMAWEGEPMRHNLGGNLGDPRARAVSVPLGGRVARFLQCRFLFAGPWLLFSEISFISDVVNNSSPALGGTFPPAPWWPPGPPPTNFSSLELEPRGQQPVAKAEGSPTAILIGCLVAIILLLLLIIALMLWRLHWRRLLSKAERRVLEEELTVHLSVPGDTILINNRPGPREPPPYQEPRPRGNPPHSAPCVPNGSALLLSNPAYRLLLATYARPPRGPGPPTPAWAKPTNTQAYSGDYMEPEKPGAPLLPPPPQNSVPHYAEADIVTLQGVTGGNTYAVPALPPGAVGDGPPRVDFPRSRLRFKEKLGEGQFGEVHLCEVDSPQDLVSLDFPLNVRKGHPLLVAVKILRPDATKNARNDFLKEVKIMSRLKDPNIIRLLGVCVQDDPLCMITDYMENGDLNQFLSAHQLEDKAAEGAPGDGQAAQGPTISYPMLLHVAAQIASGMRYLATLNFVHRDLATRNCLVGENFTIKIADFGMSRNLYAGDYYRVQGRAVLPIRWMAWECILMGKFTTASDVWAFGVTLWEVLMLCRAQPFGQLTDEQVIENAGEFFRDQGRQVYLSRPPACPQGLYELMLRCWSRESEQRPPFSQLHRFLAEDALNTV
The target is the same in experiment [2]. Kind of experiment: Binding affinity to DDR1 (unknown origin) at LYS655 residue assessed as occupancy relative to control.

Regarding `Cc1cc(Nc2cc(N3CCN(C)CC3)nc(Sc3ccc(NC(=O)C4CC4)cc3)n2)n[nH]1`, the outcome in the experiment with Z-138 was Active.
For `CN1CCN(c2ccc(C(=O)Nc3n[nH]c4ccc(Cc5cc(F)cc(F)c5)cc34)c(NC3CCOCC3)c2)CC1`, in the experiment on Z-138, the outcome was Active. Besides, the results for the Occ in experiment [1] and in experiment [2] were 82.8% and 69.9%, respectively.
